Reference: ChEMBL document CHEMBL3425494, “Design, synthesis, and antitumor evaluation of novel histone deacetylase inhibitors equipped with a phenylsulfonylfuroxan module as a nitric oxide donor” (J Med Chem, 2015)

Target: T1, Histone deacetylase 8 (Homo sapiens, UniProt Q9BY41)
T1 sequence (Q9BY41 whole entry): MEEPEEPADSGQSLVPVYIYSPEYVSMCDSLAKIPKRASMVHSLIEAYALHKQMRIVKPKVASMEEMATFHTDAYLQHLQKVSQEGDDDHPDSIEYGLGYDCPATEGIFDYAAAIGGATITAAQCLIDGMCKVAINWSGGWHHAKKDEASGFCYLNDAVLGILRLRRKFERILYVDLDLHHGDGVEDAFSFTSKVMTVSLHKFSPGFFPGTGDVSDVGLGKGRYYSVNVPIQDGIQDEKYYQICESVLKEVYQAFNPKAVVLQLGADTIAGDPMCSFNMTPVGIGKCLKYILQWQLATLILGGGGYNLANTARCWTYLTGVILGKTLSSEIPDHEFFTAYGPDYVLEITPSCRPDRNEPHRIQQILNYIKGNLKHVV
Test: Inhibition of full length human recombinant HDAC8 expressed in baculovirus infected insect S9 cells using Ac-Leu-GlyLys(Tfa)-AMC as substrate after 30 mins by fluorescence assay

IC50: 343 nM
SMILES: O=C(CCCCCOc1no[n+]([O-])c1S(=O)(=O)c1ccccc1)NO
